Results: patent US20040220164A1, “Triaza compound immunoregulatory agents” (priority 2001, published 2004)
Like-named read-outs stand apart in the source and are kept apart here.

Experiments:
[1] = system: HIV-1 strain NL4.3; test: Anti-HIV-1 assay (p24 Ag ELISA); format: cell-based; details: for IC50: read-out: IC50 against HIV-1 NL4.3; for p24 viral core antigen in supernatant: MT-4, NL4.3
Protocol: The antiviral activity of CADA against HIV-1 and RHV-7 was investigated. PBMCs and […] cell-depleted PBMCs (removed with CD8 magnetic beads; Dynal AS, Oslo, Norway), previously activated with purified PHA (2 μg/ml) and rhIL-2 (1 ng/ml) for 3 days, were pelleted and exposed to HIV-1 (1 ng p24 Ag per 10^6 cells) for 2 hours at 370C. Then the cells were washed three times with warm medium and cultured in complete medium containing rhIL-2 (1 ng/ml) in the presence or absence of different concentrations of CADA hydrochloride. The anti-HIV-1 assays were also performed in MT-4 and SupT1 cells. CADA hydrochloride was diluted in the plates, then the MT-4 cells or SupT1 cells were added and finally the T-tropic HIV-1 strains. The supernatant was collected at day 5 for MT-4 cells, day 8 for SupT1 cells and day 12 for PBMCs, and stored at −20° C. and analyzed for HIV-1 core antigen by p24 Ag ELISA (NEN, Brussels, Belgium). The SupT1 cells were refreshed on day 4, and half of the medium and cells were replaced and fresh CADA-free medium was added. For the PBMCs, fresh culture medium was added at day 6 containing rhIL-2 (but no CADA). For the anti-HHV-7 assays in PBMCs, CADA hydrochloride was diluted in a plate, 2×10˜cells were added and then HHV-7 (KHR strain) was added in complete medium containing rhIL-2 (1 ng/ml). Fresh culture medium was added again at day 6 containing rhIL-2 (but no CADA). The same infection protocol was used for the SupT1 cells, but without rhIL-2. The SupT1 cells were refreshed on day 4 and day 8, half of the medium and the cells were replaced, and fresh medium without CADA was added. The HHV-7 antigen expression was monitored (at day 12) with a specific mAb to HHV-7 (RK-4) (Advanced Biotechnologies, Columbia, Md.) by flow cytometry, as described previously (Thang, Y., et al., Antiviral Res. 43:23-35 (1999)).
Table 4 presents the results for MT-4 cells pretreated with CADA for 1 day at 8.1 μM and then infected with the HIV-1 strain NL4.3 or RF in the presence or absence of CADA. […] As three CD4 binding events are needed to efficiently activate HIV-1 Env trimers (Layne, S. P., et al., Nature 346: 602-605 (1990)), multimeric CD4 binding is required for HIV infection, further confirming that receptor density plays a crucial role in the efficiency of viral infectivity (Platt, E. J., et al., J. Virol. 71: 883-890 (1997)). […] Primary HIV isolates seem to be much more dependent on the level of CD4 expression (Kabat; D., et al., J. Virol. 68:2570-2577 (1994)). […] Although CD4-independent viruses are described (Hofflian, T. L., et al., Proc. Natl. Acad. Sci. U.S.A. 96: 63 59-6364 (1999)), these are much more sensitive to neutralization by antibodies, which explains the rarity of CD4-independent wild-type HIV variants (Kolchinski, P., et al., J. Virol. 75: 204 1-2050 (2001)).

[2] = Cytotoxic concentration (Example 2); format: cell-based; details: human, MT-4 cells; read-out: cytotoxic concentration (CC50)
[3] = system: CXCR4; test: Cell surface expression of HIV coreceptor; format: cell-based, human; details: incubation of the cells with CADA for 4 days
Protocol: (§1) Expression of various other surface antigens was also examined in MT-4 cells, SupT1 cells and PBMCs after incubation with CADA (16 μM) or CADA-free medium at 37° C. for 4 days. After washing with phosphate-buffered saline (PBS) containing 2% FCS(fetal calf serum), the cells were incubated with mAb (as indicated in Table 1) for 20 min at 4° C. Then the cells were washed, fixed with 1% formaldehyde and analyzed by flow cytometry. All mAbs were purchased from Becton-Dickinson (Erembodegem, Belgium).

[4] = system: CCR5; test: Cell surface expression of HIV coreceptor; format: cell-based, human; details: incubation of the cells with CADA for 4 days
Protocol: as §1

[5] = system: 6 different primary HIV-1 isolates; test: Activity against primary HIV-1 isolates in PBMCs; format: cell-based; details: read-out: activity against primary HIV-1 isolates, range
[6] = system: CD28; test: Cell surface antigen expression by flow cytometry (Table 2); format: cell-based, human; details: CADA 16 μM, 4 days, percentage of positive cells, unit not given
Protocol: as §1

[7] = system: CD26; test: as above; format: cell-based, human; details: CADA 16 μM, 4 days, percentage of positive cells, unit not given
Protocol: as §1

[8] = system: CD45RA; test: as above; format: cell-based, human; details: CADA 16 μM, 4 days, percentage of positive cells, unit not given
Protocol: as §1

[9] = system: CD8; test: as above; format: cell-based, human; details: CADA 16 μM, 4 days, percentage of positive cells, unit not given
Protocol: as §1

[10] = system: HLA-DR; test: as above; format: cell-based, human; details: CADA 16 μM, 4 days, percentage of positive cells, unit not given
Protocol: as §1

[11] = system: TCRα/β; test: as above; format: cell-based, human; details: CADA 16 μM, 4 days, percentage of positive cells, unit not given
Protocol: as §1

[12] = system: CD45; test: as above; format: cell-based, human; details: CADA 16 μM, 4 days, percentage of positive cells, unit not given
Protocol: as §1

[13] = system: CD25; test: as above; format: cell-based, human; details: CADA 16 μM, 4 days, percentage of positive cells, unit not given
Protocol: as §1

[14] = system: CD11b; test: as above; format: cell-based, human; details: CADA 16 μM, 4 days, percentage of positive cells, unit not given
Protocol: as §1

[15] = system: CD71; test: as above; format: cell-based, human; details: CADA 16 μM, 4 days, percentage of positive cells, unit not given
Protocol: as §1

[16] = system: CD5; test: as above; format: cell-based, human; details: CADA 16 μM, 4 days, percentage of positive cells, unit not given
Protocol: as §1

## C=C1CN(S(=O)(=O)c2ccc(C)cc2)CCCN(Cc2ccccc2)CCCN(S(=O)(=O)c2ccc(C)cc2)C1 [CADA]
[1]; Human immunodeficiency virus 1, MT4, MT-4 cells
  IC50: 500 nM
[1]; Human immunodeficiency virus 1, PBMC
  IC50: 1600 nM
[1]; Human immunodeficiency virus 1, SUP-T1, SupT1 cells
  IC50: 3100 nM
[1]; cells pre-treated with CADA hydrochloride 8.1 μM 24 hours, medium without CADA after infection, untreated control 158627
  p24 viral core antigen in supernatant: 34839 pg/mL
[1]; not pre-treated, CADA 0.13 μM
  p24 viral core antigen in supernatant: 127838 pg/mL
[1]; not pre-treated, CADA 0.6 μM
  p24 viral core antigen in supernatant: 63098 pg/mL
[1]; not pre-treated, CADA 3.2 μM
  p24 viral core antigen in supernatant: <5 pg/mL
[1]; pre-treated (CADA 8.1 μM, 24 hours), CADA 0.13 μM after infection
  p24 viral core antigen in supernatant: 33785 pg/mL
[1]; pre-treated (CADA 8.1 μM, 24 hours), CADA 0.6 μM after infection
  p24 viral core antigen in supernatant: <5 pg/mL
[1]; pre-treated (CADA 8.1 μM, 24 hours), CADA 3.2 μM after infection
  p24 viral core antigen in supernatant: <5 pg/mL
[2]
  CC50: 134000 nM
[3]
  cell surface expression of CXCR4: remained unchanged
[4]
  cell surface expression of CCR5: remained unchanged
[5]
  IC50: 2 to 2300 nM
[6]; MT-4 T-cells
  CD28 cell surface antigen expression: 6.6
[6]; PBMCs
  CD28 cell surface antigen expression: 89.6
[6]; SupT1 T-cells
  CD28 cell surface antigen expression: 90.8
[7]; MT-4 T-cells
  CD26 cell surface antigen expression: 3.2
[7]; PBMCs
  CD26 cell surface antigen expression: 3.2
[7]; SupT1 T-cells
  CD26 cell surface antigen expression: 0.3
[8]; MT-4 T-cells
  CD45RA cell surface antigen expression: 2.0
[8]; PBMCs
  CD45RA cell surface antigen expression: 64.3
[8]; SupT1 T-cells
  CD45RA cell surface antigen expression: 0.5
[9]; MT-4 T-cells
  CD8 cell surface antigen expression: 3.5
[9]; PBMCs
  CD8 cell surface antigen expression: 25.1
[9]; SupT1 T-cells
  CD8 cell surface antigen expression: 92.3
[10]; MT-4 T-cells
  HLA-DR cell surface antigen expression: 98.7
[10]; PBMCs
  HLA-DR cell surface antigen expression: 27
[10]; SupT1 T-cells
  HLA-DR cell surface antigen expression: 1.7
[11]; MT-4 T-cells
  TCRα/β cell surface antigen expression: 1.1
[11]; PBMCs
  TCRα/β cell surface antigen expression: 82.3
[11]; SupT1 T-cells
  TCRα/β cell surface antigen expression: 1.6
[12]; MT-4 T-cells
  CD45 cell surface antigen expression: 3.57
[12]; PBMCs
  CD45 cell surface antigen expression: 98.3
[12]; SupT1 T-cells
  CD45 cell surface antigen expression: 99.6
[13]; MT-4 T-cells
  CD25 cell surface antigen expression: 93.3
[13]; PBMCs
  CD25 cell surface antigen expression: 35.5
[13]; SupT1 T-cells
  CD25 cell surface antigen expression: 1
[14]; MT-4 T-cells
  CD11b cell surface antigen expression: 9.7
[14]; PBMCs
  CD11b cell surface antigen expression: 12.3
[14]; SupT1 T-cells
  CD11b cell surface antigen expression: 0.6
[15]; MT-4 T-cells
  CD71 cell surface antigen expression: 98.8
[15]; PBMCs
  CD71 cell surface antigen expression: 27.6
[15]; SupT1 T-cells
  CD71 cell surface antigen expression: 33.9
[16]; MT-4 T-cells
  CD5 cell surface antigen expression: 99.1
[16]; PBMCs
  CD5 cell surface antigen expression: 80.6
[16]; SupT1 T-cells
  CD5 cell surface antigen expression: 93.9
